Columns and labels:
Format in all cases: cell-based
human LOXL1 promoter = experiment: PLOXL1-ZsGreen reporter: green fluorescence intensity of human fibroblasts
Protocol: S3. Drug screening: Inoculate the said human fibroblasts integrating PLOXL1-ZsGreen component into culture medium, incubate overnight. Dissolve the analyte into DMSO as 0.2-2 mg/ml, and dilute into 1:200, then add it into the cell culture medium, and its final concentration will be […]. After incubating overnight (37° C., 5% CO2), detect the green fluorescence intensity of these cells. The screening method of present invention decides if the analyte added stimulates the activity of human LOXL1 promoter effectively, and increases the expression of LOXL1, thus promotes the crosslinking of extracellular matrix protein, by checking if the green fluorescence intensity is increased.
Inoculate the said human fibroblasts integrating PLOXL1-ZsGreen component into culture medium with a density of 20%, keep adherent overnight. […] After culturing overnight (37° C., 5% CO2), detect the green fluorescence intensity of these cells. The present invention decides if the Chinese herbal extracts added stimulate the activity of human LOXL1 promoter effectively by checking if the green fluorescence intensity is increased. […]
Inoculate the said stably expressing human fibroblast strain integrating a expression cassette of PLOXL1-ZsGreen with a 20% density into media, keep adherent overnight (37° C., 5% CO2), detect the green fluorescence intensity of these cells. […]

LOXL1 = experiment: Real-time and western blot of LOXL1 mRNA/protein and elastin dimer in human fibroblast lines HF1 and HF2; settings: for expression of LOXL1 (mRNA and protein): 4 μM emodin, overnight; for formation of elastin dimer intermediate: different emodin concentrations
Protocol: Two human fibroblast cell lines integrating PLOXL1-ZsGreen components (HF1 and HF2) are inoculated at a density of 20%, incubated overnight (37° C., 5% CO2). […] After cultured overnight, Real-time and western blot are used to detect the mRNA level and protein level in LOXL1. Wherein, the one added DMSO solvent only works as the control, and is normalized to 1, data are calculated as Mean±SEM of three independent test values, *P<0.05; **P<0.001; ***P<0.0001. […] In these two cell lines, the expression of LOXL1 is not only linearly correlated to transcriptional level, but to LOXL1 protein level, and accomplishing elastin dimer intermediates formation.

[1] = system: extracellular matrix crosslinking in human fibroblasts; experiment: ELISA of desmosine and hydroxylproline (elastin and collagen crosslinking) in human fibroblast lines HF1 and HF2; settings: different emodin concentrations
Protocol: Two human fibroblast cell lines integrating PLOXL1-ZsGreen components (HF1 and HF2) are inoculated at a density of 20%, incubated overnight (37° C., 5% CO2). Then, emodin is added into the culture medium. Detect the desmosine by ELISA method to determine the effects of different emodin concentrations to elastin crosslinking. This example determines the effects of different emodin concentrations to collagen crosslinking by detecting the contents of hydroxylproline through ELISA method. […] Thus, emodin promotes the crosslinking of extracellular matrix protein in human fibroblasts widely.

[2] = system: LOXL1 in human skin tissue; experiment: Real-time and western blot of LOXL1 and elastin monomer/dimer in cultured human skin tissue
Protocol: Emodin was added into the culture medium of human skin tissue. Detect the LOXL1 level in human skin tissue and elastin crosslinking level during 1˜3 days after emodin treatment. Detect the mRNA level and protein level of LOXL1 using Real-time and western blot methods, as well as detecting the amount of monomer and dimer of elastin. Wherein, the control with DMSO solvent added only is normalized to 1, data are calculated as Mean±SEM of three independent test values. *p<0.01, ***P<0.0001.

Compound: Cc1cc(O)c2c(c1)C(=O)c1cc(O)cc(O)c1C2=O [emodin]
- activity of human LOXL1 promoter (ZsGreen fluorescent intensity) (human LOXL1 promoter; Example 4, FIG. 4a, 4 μM emodin): obvious promotion to the activity of human LOXL1 promoter
- fluorescent intensity of ZsGreen vs emodin concentration (human LOXL1 promoter; Example 4, FIG. 4c, DMSO control normalized to 1): increases with the concentration of emodin, with a significant linear relationship
- expression of LOXL1 (mRNA and protein) (LOXL1; HF1 cell line, FIGS. 5a1-5a2): significantly promotes the expression of LOXL1
- formation of elastin dimer intermediate (LOXL1; HF1 cell line, FIG. 5a3): promotion of different emodin concentration to the expression of LOXL1 and the formation of elastin dimer intermediate
- expression of LOXL1 (mRNA and protein) (LOXL1; HF2 cell line, FIGS. 5b1-5b2): significantly promotes the expression of LOXL1
- formation of elastin dimer intermediate (LOXL1; HF2 cell line, FIG. 5b3): promotion of different emodin concentration to the expression of LOXL1 and the formation of elastin dimer intermediate
- desmosine intermediates (elastin crosslinking) ([1]; HF1, FIG. 6a1): increase with the increasing concentrations of emodin added
- hydroxylproline intermediate (collagen crosslinking) ([1]; HF1, FIG. 6a2): also increases with the increasing concentrations of emodin added
- desmosine intermediates (elastin crosslinking) ([1]; HF2, FIG. 6b1): increase with the increasing concentrations of emodin added
- hydroxylproline intermediate (collagen crosslinking) ([1]; HF2, FIG. 6b2): also increases with the increasing concentrations of emodin added
- LOXL1 protein level ([2]; 4 μM emodin, FIG. 7b): significantly promotes the LOXL1 protein level
- elastin intermediate dimers ([2]; 4 μM emodin, FIG. 7c): increase of intermediate dimers
- elastin monomers ([2]; 4 μM emodin, FIG. 7c): decrease of elastin monomers
- LOXL1 mRNA level ([2]; different emodin concentrations, 1-3 days, FIG. 7a): increases as the emodin concentration increases

Reference: patent publication US9481915B2, “Method of screening drugs that promote LOXL1 expression” (SHANGHAI TENTH PEOPLE'S HOSPITAL, priority 2012, dated 2016)
